Assay results taken from patent US9931338B2, “Syk inhibitors” (Gilead Sciences, Inc., priority 2014, dated 2018).
Structures can show the parent of a compound that is named as a salt.

Assays:
[1] = cited from earlier work
[2] = test system: human hepatocytes; test: Human Hepatocyte Stability Assay; assay type: in vitro ADME; settings: comparison table, Example 12; head prints '(units)', method states L/hr/kg
Procedure: The human […] stability of the compounds as predicted hepatocyte clearance in L/hr/kg was assessed. Compounds to be tested were diluted to 200 μM (4 μl of 10 mM DMSO stock into 196 μl ACN:H2O (50:50). Propranolol was used as a positive control, and buffer only without hepatocytes as 0% control. These were further diluted 4 μl with 891 μl KHB buffer (InVitroGRO catalog number Z99074) to provide 2× dosing solution. To each well of 24 well plate, 250 μl of the 2× dosing solution was added to each well with 250 μl of hepatocytes cells (1×10^6 viable cells/ml per well) or KHB for control samples to achieve a final compound concentration of 1 μM during incubation. The final solvent concentration was 0.01% DMSO and 0.25% ACN. The culture plate was placed on a rocker and incubated at 37° C., 5% CO2. Samples were collected at time 0, 1, 3, and 6 hours. The loss of parent compound was determined using LC-MS methods against a standard curve.

Row | SMILES | solubility in methanol [1] | Hheps CL [2] [mL/min/kg]
1 | CC[C@]1(O)C[C@H]2CN(CCc3c([nH]c4ccccc34)[C@@](C(=O)OC)(c3cc4c(cc3OC)N(C=O)[C@H]3[C@@](O)(C(=O)OC)[C@H](OC(C)=O)[C@]5(CC)C=CCN6CC[C@]43[C@@H]65)C2)C1 [Vincristine Sulfate, vincristine sulfate] | soluble | 
2 | Cc1c(-c2cncc(N)n2)nc(Nc2ccc(N3CCN(C4COC4)CC3)cc2)c2nccn12 [Ex.-4, 6-(6-aminopyrazin-2-yl)-5-methyl-N-(4-(4-(oxetan-3-yl)piperazin-1-yl)phenyl)imidazo[1,2-a]pyrazin-8-amine] |  | 1.3
3 | Nc1cncc(-c2cn3ccnc3c(Nc3ccc(N4CCN(C5COC5)CC4)cc3)n2)n1 [Ex.-2, 6-(6-aminopyrazin-2-yl)-N-(4-(4-(oxetan-3-yl)piperazin-1-yl)phenyl)imidazo[1,2-a]pyrazin-8-amine] |  | 0.917
4 | Cc1ncc(-c2cn3ccnc3c(Nc3ccc(N4CCOCC4)cc3)n2)cc1N [6-(5-amino-6-methylpyridin-3-yl)-N-(4-morpholinophenyl)imidazo[1,2-a]pyrazin-8-amine, reference compound] |  | 13.3
5 | Cc1ncc(-c2cn3ccnc3c(Nc3ccc(N4CCN(C5COC5)CC4)cc3)n2)nc1N [Ex.-1, 6-(6-amino-5-methylpyrazin-2-yl)-N-(4-(4-(oxetan-3-yl)piperazin-1-yl)phenyl)imidazo[1,2-a]pyrazin-8-amine] |  | 2
6 | Cc1ncc(-c2cn3ccnc3c(Nc3ccc(N4CCN(C5COC5)CC4)c(OCCO)c3)n2)nc1N [Ex.-7, 2-(5-((6-(6-amino-5-methylpyrazin-2-yl)imidazo[1,2-a]pyrazin-8-yl)amino)-2-(4-(oxetan-3-yl)piperazin-1-yl)phenoxy)ethanol] |  | 0.83
7 | Nc1cncc(-c2cn3ccnc3c(Nc3ccc(N4CCN(CC(CO)CO)CC4)cc3)n2)n1 [Ex.-6, 2-((4-(4-((6-(6-aminopyrazin-2-yl)imidazo[1,2-a]pyrazin-8-yl)amino)phenyl)piperazin-1-yl)methyl)propane-1,3-diol] |  | 1.3
8 | Nc1cncc(-c2cn3ccnc3c(Nc3ccc(N4CCO[C@@H](CO)C4)cc3)n2)n1 [Ex.-3, (R)-(4-(4-((6-(6-aminopyrazin-2-yl)imidazo[1,2-a]pyrazin-8-yl)amino)phenyl)morpholin-2-yl)methanol] |  | 1.5
9 | COc1ccc(Nc2nc(-c3ccc(N)nc3)cn3ccnc23)cc1OC [6-(6-aminopyridin-3-yl)-N-(3,4-dimethoxyphenyl)imidazo[1,2-a]pyrazin-8-amine, reference compound] |  | 15
10 | COc1ccc(Nc2nc(-c3cccc(N)c3)cn3ccnc23)cc1OC [6-(3-aminophenyl)-N-(3,4-dimethoxyphenyl)imidazo[1,2-a]pyrazin-8-amine, reference compound] |  | 4
11 | Nc1cncc(-c2cn3ccnc3c(Nc3ccc(N4CCN(C5COC5)CC4)c(OCCO)c3)n2)n1 [Ex.-5, 2-(5-((6-(6-aminopyrazin-2-yl)imidazo[1,2-a]pyrazin-8-yl)amino)-2-(4-(oxetan-3-yl)piperazin-1-yl)phenoxy)ethanol] |  | 1.2
12 | Nc1cncc(-c2cn3ccnc3c(Nc3ccc(N4CCOCC4)cc3)n2)c1 [6-(5-aminopyridin-3-yl)-N-(4-morpholinophenyl)imidazo[1,2-a]pyrazin-8-amine, reference compound] |  | 11.3
